Test results as given in ChEMBL document CHEMBL6074674, “Development of Novel Silicon-Based Hydrophobic Tags (SiHyT) for Targeted Proteins Degradation” (J Med Chem, 2024).
Activity calls are given as the source filed them. The calls are words filed in the database; no cut-off is given here.

Legend:
[1] = system: E3 ubiquitin-protein ligase RNF149/Epidermal growth factor receptor (Homo sapiens), P00533+Q8NC42 [UNDEFINED MUTATION]; assay: SiHyT-mediated degrader activity at RNF149/EGFR mutant in human HCC827 cells assessed as induction of EGFR degradation by measuring decrease in EGFR level at 1 uM measured after 9 hrs by western blot analysis; assay type: cell-based
E3 ubiquitin-protein ligase RNF149/Epidermal growth factor receptor (Homo sapiens), P00533+Q8NC42 [UNDEFINED MUTATION], sequence (P00533 whole entry, looked up, change not shown): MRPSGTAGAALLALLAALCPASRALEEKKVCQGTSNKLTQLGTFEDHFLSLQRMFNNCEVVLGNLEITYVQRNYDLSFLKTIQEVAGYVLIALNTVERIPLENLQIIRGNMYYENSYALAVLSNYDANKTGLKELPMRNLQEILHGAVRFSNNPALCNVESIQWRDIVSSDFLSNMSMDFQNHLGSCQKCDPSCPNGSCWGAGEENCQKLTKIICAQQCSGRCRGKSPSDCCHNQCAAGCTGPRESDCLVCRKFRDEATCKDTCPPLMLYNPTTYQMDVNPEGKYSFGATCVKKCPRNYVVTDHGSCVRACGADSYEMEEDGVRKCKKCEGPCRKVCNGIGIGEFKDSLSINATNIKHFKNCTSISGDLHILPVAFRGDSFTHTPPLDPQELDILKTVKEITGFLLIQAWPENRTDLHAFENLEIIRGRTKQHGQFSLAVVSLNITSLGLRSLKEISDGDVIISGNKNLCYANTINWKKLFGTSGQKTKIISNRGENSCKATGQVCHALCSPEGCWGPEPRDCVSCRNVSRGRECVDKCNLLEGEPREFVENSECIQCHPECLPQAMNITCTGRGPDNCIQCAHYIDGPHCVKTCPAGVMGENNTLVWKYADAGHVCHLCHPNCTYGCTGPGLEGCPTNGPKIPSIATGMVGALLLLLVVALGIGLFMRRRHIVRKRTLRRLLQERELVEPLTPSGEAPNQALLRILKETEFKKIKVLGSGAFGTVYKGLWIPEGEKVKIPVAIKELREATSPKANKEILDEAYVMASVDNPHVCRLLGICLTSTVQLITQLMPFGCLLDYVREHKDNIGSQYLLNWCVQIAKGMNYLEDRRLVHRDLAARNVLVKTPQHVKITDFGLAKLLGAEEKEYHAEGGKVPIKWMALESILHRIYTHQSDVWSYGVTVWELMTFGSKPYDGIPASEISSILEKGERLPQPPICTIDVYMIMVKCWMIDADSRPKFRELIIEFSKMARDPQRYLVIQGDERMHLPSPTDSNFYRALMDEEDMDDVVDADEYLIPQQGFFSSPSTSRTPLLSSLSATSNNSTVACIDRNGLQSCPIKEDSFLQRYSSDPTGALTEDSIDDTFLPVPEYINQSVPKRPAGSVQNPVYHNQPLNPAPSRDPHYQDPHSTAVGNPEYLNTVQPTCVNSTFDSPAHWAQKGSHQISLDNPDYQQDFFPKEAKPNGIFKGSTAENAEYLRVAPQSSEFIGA
E3 ubiquitin-protein ligase RNF149/Epidermal growth factor receptor (Homo sapiens), P00533+Q8NC42 [UNDEFINED MUTATION], sequence (Q8NC42 whole entry, looked up, change not shown): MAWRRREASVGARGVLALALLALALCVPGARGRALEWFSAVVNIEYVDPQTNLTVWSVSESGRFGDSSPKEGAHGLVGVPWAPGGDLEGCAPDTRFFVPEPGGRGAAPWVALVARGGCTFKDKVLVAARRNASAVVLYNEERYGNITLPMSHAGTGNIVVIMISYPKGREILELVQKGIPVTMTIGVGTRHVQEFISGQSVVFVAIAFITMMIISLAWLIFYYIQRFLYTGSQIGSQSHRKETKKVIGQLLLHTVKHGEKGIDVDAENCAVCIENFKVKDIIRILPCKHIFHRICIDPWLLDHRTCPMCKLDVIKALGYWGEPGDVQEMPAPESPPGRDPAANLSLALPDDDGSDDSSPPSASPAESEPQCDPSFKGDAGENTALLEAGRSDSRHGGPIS

[2] = Toxicity in mouse assessed as pathological changes in liver administered for 14 days by Hematoxylin-Eosin staining based analysis; assay type: tissue-based; conditions: in vivo, 336 h, time 14 day
[3] = system: HEK-293T; assay: Cytotoxicity against human HEK293T cells assessed as reduction in cell viability; assay type: toxicity, cell-based
[4] = Half life of the compound in mouse liver microsomes at 1 uM in presence of NADPH by LC-MS/MS analysis; assay type: ADME, Microsome
[5] = system: E3 ubiquitin-protein ligase RNF149/Epidermal growth factor receptor (Homo sapiens), P00533+Q8NC42 [UNDEFINED MUTATION]; assay: SiHyT-mediated degrader activity at RNF149/EGFR mutant in human HCC827 cells assessed as induction of EGFR degradation by measuring decrease in EGFR level at 1 uM measured after 24 hrs by western blot analysis; assay type: cell-based
[6] = MRT in ICR mouse at 1 mg/kg, iv by LC-MS/MS analysis; assay type: ADME, organism-based; conditions: in vivo
[7] = target: Epidermal growth factor receptor (Homo sapiens) (UniProt P00533); assay: Induction of EGFR mutant degradation in human PC-9 cells transfected with RNF149 shRNA at 1 uM by western blot analysis; assay type: cell-based
Epidermal growth factor receptor (Homo sapiens), sequence (P00533 whole entry): as the sequence (P00533 whole entry, looked up, change not shown) above

[8] = system: PC-9; assay: Induction of cell cycle arrest in human PC-9 cells assessed as increase in cell accumulation at G1 phase at 0.5 to 2 uM incubated for 24 hrs by propidium iodide staining based flow cytometry; assay type: functional; conditions: dose 0.5-2 µM
[9] = Tmax in ICR mouse at 1 mg/kg, iv by LC-MS/MS analysis; assay type: ADME, organism-based; conditions: in vivo
[10] = system: HCC827; assay: Induction of cell cycle arrest in human HCC827 cells assessed as increase in cell accumulation at G1 phase at 0.5 to 2 uM incubated for 24 hrs by propidium iodide staining based flow cytometry; assay type: functional; conditions: dose 0.5-2 µM
[11] = system: BEAS-2B; assay: Cytotoxicity against human BEAS-2B cells assessed as reduction in cell viability; assay type: toxicity, cell-based
[12] = system: HCC827; assay: Induction of apoptosis in human HCC827 cells at 0.5 to 2 uM incubated for 48 hrs by AnnexinV-FITC/PI staining based flow cytometry; assay type: functional, cell-based; conditions: dose 0.5-2 µM
[13] = system: PC-9; assay: Induction of interaction between RNF149/EGFR mutant in human PC-9 cells assessed as disruption of EGFR mutant/HSP70 complex formation at 2 uM measured after 6 hrs by co-immunoprecipitation analysis; assay type: cell-based
[14] = system: HUVEC; assay: Cytotoxicity against human HUVEC cells assessed as reduction in cell viability; assay type: toxicity, cell-based
[15] = system: HCC827; assay: Inhibition of cell invasion in human HCC827 cells at 0.25 to 2 uM incubated for 12 hrs by Transwell assay; assay type: functional, cell-based; conditions: dose 0.25-2 µM
[16] = AUC in ICR mouse at 1 mg/kg, iv by LC-MS/MS analysis; assay type: ADME, organism-based; conditions: in vivo
[17] = system: PC-9; assay: Binding affinity to RNF149/EGFR mutant in human PC-9 cells at 2 uM incubated for 4 hrs by CETSA analysis; assay type: cell-based
[18] = system: PC-9; assay: SiHyT-mediated degrader activity at RNF149/EGFR mutant in human PC-9 cells assessed as induction of EGFR degradation at 1 uM in presence of HSP90 inhibitor, geldanamycin by western blot analysis; assay type: cell-based
[19] = system: PC-9; assay: Induction of apoptosis in human PC-9 cells at 0.5 to 2 uM incubated for 48 hrs by AnnexinV-FITC/PI staining based flow cytometry; assay type: functional, cell-based; conditions: dose 0.5-2 µM
[20] = system: PC-9; assay: Inhibition of cell invasion in human PC-9 cells at 0.5 to 1 uM incubated for 24 hrs by wound healing analysis; assay type: functional, cell-based; conditions: dose 0.5-1 µM
[21] = system: PC-9; assay: Induction of interaction between RNF149/EGFR mutant in human PC-9 cells measured after 6 hrs by co-immunoprecipitation analysis; assay type: cell-based
[22] = system: PC-9; assay: Induction of interaction between RNF149/EGFR mutant in human PC-9 cells by pull-down based LC-MS/MS analysis; assay type: cell-based
[23] = Half life of the compound in human liver microsomes at 1 uM in presence of NADPH by LC-MS/MS analysis; assay type: ADME, Microsome
[24] = Half life in ICR mouse at 10 mg/kg, po by LC-MS/MS analysis; assay type: ADME, organism-based; conditions: in vivo
[25] = system: HCC827; assay: Inhibition of colony formation in human HCC827 cells assessed as inhibition of malignant clonal growth at 0.5 to 1 uM measured after 7 days by crystal violet staining based analysis; assay type: functional, cell-based; conditions: dose 0.5-1 µM, time 7.0 day
[26] = system: L02; assay: Cytotoxicity against human LO2 cells assessed as reduction in cell viability; assay type: toxicity, cell-based

## COc1cc2ncnc(Nc3ccc(F)c(Cl)c3)c2cc1OCCn1cc(CCCO[Si](c2ccccc2)(c2ccccc2)C(C)(C)C)nn1
[1]
  Activity: Active
[2]
  Activity: Non-toxic
[3]
  Activity: Toxic
[4]
  half-life at 1 µM: > 60 min
[5]
  Activity: Active
[6]
  MRT: 2.72 h
[7]
  Activity: inactive
[8]
  Activity: Dose-dependent-effect
[9]
  Tmax: 4.8 min
[10]
  Activity: Dose-dependent-effect
[11]
  Activity: Toxic
[12]
  Activity: Dose-dependent-effect
[13]
  Activity: inactive
[14]
  Activity: Toxic
[15]
  inhibition: Active
[16]
  AUC: 2164.76 ng·mL·h
[17]
  Activity: Active
[18]
  Activity: Active
[19]
  Activity: Dose-dependent-effect
[20]
  inhibition: Active
[21]
  Activity: Active
[22]
  Activity: Active
[23]
  half-life at 1 µM: > 60 min
[24]
  half-life: 77.4 min
[25]
  inhibition: Active
[26]
  Activity: Toxic
